Results reported in patent publication US4477443A, “Tylosin derivatives, their preparation and pharmaceutical compositions containing them” (Zaidan Hojin Biselbutsu Kagaku Kenkyu Kai (Microbial …, priority 1981, dated 1984).
In brackets after ≈: the same amount, converted by molar mass. Read-outs that look alike come from different tables or passages of the source.

Assays:
Test in all cases: antimicrobial activity (MIC), Table II
Type in all cases: cell-based
B. subtilis ATCC 6633 = conditions: Bacillus subtilis, ATCC6633; B. subtilis ATCC 6633; read-out: MIC
B. cereus = conditions: Bacillus cereus; B. cereus; read-out: MIC
Staph. aureus ATCC 6538P = conditions: Staphylococcus aureus, ATCC6538P
Staph. aureus KC-11 = conditions: Staphylococcus aureus, KC11
Staph. aureus 226 = conditions: Staphylococcus aureus
[1] = test system: Staph. epidermidis IID 866; conditions: Staphylococcus epidermidis, IID866
[2] = test system: Staph. epidermidis IID 886; conditions: Staphylococcus epidermidis, IID886
[3] = Staph. aureus ATCC 6538P, read-out: MIC
[4] = Staph. aureus KC-11, read-out: MIC
[5] = Staph. aureus 226, read-out: MIC

SMILES | MIC (B. subtilis ATCC 6633) [µg/mL] | MIC (B. cereus) [µg/mL] | MIC (Staph. aureus ATCC 6538P; [3]) [µg/mL] | MIC (Staph. aureus KC-11; [4]) [µg/mL] | MIC (Staph. aureus 226; [5]) [µg/mL] | MIC [1] [µg/mL] | MIC (Staph. aureus ATCC 6538P) [µg/mL] | MIC (Staph. aureus 226; 226) [µg/mL] | MIC (Staph. aureus KC-11) [µg/mL] | MIC [2] [µg/mL]
CCC1OC(=O)CC(O)C(C)C(OC2OC(C)CC(N(C)C)C2O)C(CC=O)CC(C)C(=O)C=CC(C)=CC1CNC(C)C (centres unmarked) [Example 21, 23,4'-dideoxy-23-isopropylaminomycaminosyl tylonolide] | 0.78 (≈ 1.25 µM) | 0.39 (≈ 0.626 µM) | 0.78 (≈ 1.25 µM) | 0.78 (≈ 1.25 µM) | 0.78 (≈ 1.25 µM) | 0.78 (≈ 1.25 µM) | – | – | – | –
CCC1OC(=O)CC(O)C(C)C(OC2OC(C)CC(N(C)C)C2O)C(CC=O)CC(C)C(=O)C=CC(C)=CC1CNC(C)(C)C (centres unmarked) [Example 22, 23,4'-dideoxy-23-(t-butylamino)mycaminosyl tylonolide] | 0.78 (≈ 1.22 µM) | 0.39 (≈ 0.612 µM) | 0.78 (≈ 1.22 µM) | 0.78 (≈ 1.22 µM) | 0.78 (≈ 1.22 µM) | 0.78 (≈ 1.22 µM) | – | – | – | –
CCC1OC(=O)CC(O)C(C)C(OC2OC(C)CC(N(C)C)C2O)C(CC=O)CC(C)C(=O)C=CC(C)=CC1CNCC(C)(C)C (centres unmarked) [Example 23, 23,4'-dideoxy-23-neopentylaminocaminosyl tylonolide] | 1.56 (≈ 2.4 µM) | 0.78 (≈ 1.2 µM) | 0.78 (≈ 1.2 µM) | 0.78 (≈ 1.2 µM) | 0.78 (≈ 1.2 µM) | 0.78 (≈ 1.2 µM) | – | – | – | –
CCC1OC(=O)CC(O)C(C)C(OC2OC(C)C(O)C(N(C)C)C2O)C(CC=O)CC(C)C(=O)C=CC(C)=CC1CN1CCCCCC1 (centres unmarked) [Example 24, 23-deoxy-23-hexamethyleneiminomycaminosyl tylonolide] | 0.78 (≈ 1.15 µM) | 0.39 (≈ 0.574 µM) | – | 0.78 (≈ 1.15 µM) | – | 0.39 (≈ 0.574 µM) | 0.39 (≈ 0.574 µM) | ≤ 0.2 | – | –
CCC(=O)N(CC)CC1C=C(C)C=CC(=O)C(C)CC(CC=O)C(OC2OC(C)C(O)C(N(C)C)C2O)C(C)C(O)CC(=O)OC1CC (centres unmarked) [Example 42, 23-deoxy-23-N-ethylpropionylaminomycaminosyl tylonolide] | 0.78 (≈ 1.15 µM) | 0.39 (≈ 0.573 µM) | 0.78 (≈ 1.15 µM) | 1.56 (≈ 2.29 µM) | 0.78 (≈ 1.15 µM) | 0.78 (≈ 1.15 µM) | – | – | – | –
CCC1OC(=O)CC(O)C(C)C(OC2OC(C)C(O)C(N(C)C)C2O)C(CC=O)CC(C)C(=O)C=CC(C)=CC1CN(CC)C(=O)c1ccco1 (centres unmarked) [Example 43, 23-deoxy-23-N-(2-furoyl)ethylaminomycaminosyl tylonolide] | 0.78 (≈ 1.09 µM) | 0.39 (≈ 0.543 µM) | 0.78 (≈ 1.09 µM) | 0.78 (≈ 1.09 µM) | 0.78 (≈ 1.09 µM) | 0.78 (≈ 1.09 µM) | – | – | – | –
CCC1OC(=O)CC(O)C(C)C(OC2OC(C)CC(N(C)C)C2O)C(CC=O)CC(C)C(=O)C=CC(C)=CC1CN(CC)C(=O)c1ccco1 (centres unmarked) [Example 45, 23,4'-dideoxy-23-N-(2-furoyl)ethylaminomycaminosyl tylonolide] | 0.39 (≈ 0.555 µM) | 0.39 (≈ 0.555 µM) | 0.78 (≈ 1.11 µM) | 0.78 (≈ 1.11 µM) | 0.78 (≈ 1.11 µM) | 0.39 (≈ 0.555 µM) | – | – | – | –
CCC1OC(=O)CC(O)C(C)C(OC2OC(C)CC(N(C)C)C2O)C(CC=O)CC(C)C(=O)C=CC(C)=CC1CN(CC)C(=O)c1cccnc1 (centres unmarked) [Example 46, 23,4'-dideoxy-23-N-nicotinoylethylaminomycaminosyl tylonolide] | 1.56 (≈ 2.19 µM) | 0.39 (≈ 0.546 µM) | 1.56 (≈ 2.19 µM) | 1.56 (≈ 2.19 µM) | 1.56 (≈ 2.19 µM) | 0.78 (≈ 1.09 µM) | – | – | – | –
CCC1OC(=O)CC(O)C(C)C(OC2OC(C)CC(N(C)C)C2O)C(CC=O)CC(C)C(=O)C=CC(C)=CC1CN(CC)C(C)=O (centres unmarked) [Example 47, 23-N-acetylethylamino-23,4'-dideoxymycaminosyl tylonolide] | 0.78 (≈ 1.2 µM) | 0.39 (≈ 0.599 µM) | 0.78 (≈ 1.2 µM) | 0.78 (≈ 1.2 µM) | 1.56 (≈ 2.4 µM) | 0.78 (≈ 1.2 µM) | – | – | – | –
CCC1OC(=O)CC(O)C(C)C(OC2OC(C)CC(N(C)C)C2O)C(CC=O)CC(C)C(=O)C=CC(C)=CC1COC(=O)CN(C)C (centres unmarked) [Example 51, 23-O-dimethylaminoacetyl-4'-deoxymycaminosyltylonolide] | 0.78 (≈ 1.17 µM) | 0.39 (≈ 0.585 µM) | 0.78 (≈ 1.17 µM) | 0.78 (≈ 1.17 µM) | 0.78 (≈ 1.17 µM) | 0.39 (≈ 0.585 µM) | – | – | – | –
CCC1OC(=O)CC(O)C(C)C(OC2OC(C)CC(N(C)C)C2O)C(CC=O)CC(C)C(=O)C=CC(C)=CC1COC(=O)CN1CCCC1 (centres unmarked) [Example 52, 23-O-pyrrolidinoacetyl-4'-deoxymycaminosyl tylonolide] | 1.56 (≈ 2.25 µM) | 1.56 (≈ 2.25 µM) | 0.78 (≈ 1.13 µM) | 0.78 (≈ 1.13 µM) | 0.78 (≈ 1.13 µM) | 0.78 (≈ 1.13 µM) | – | – | – | –
CCC1OC(=O)CC(O)C(C)C(OC2OC(C)CC(N(C)C)C2O)C(CC=O)CC(C)C(=O)C=CC(C)=CC1COC(=O)CSc1ccccn1 (centres unmarked) [Example 53, 23-O-(pyridine-2-thioyl)acetyl-4'-deoxymycaminosyl tylonolide] | 0.39 (≈ 0.532 µM) | ≤ 0.2 | – | – | – | – | 0.39 (≈ 0.532 µM) | 0.39 (≈ 0.532 µM) | 0.39 (≈ 0.532 µM) | ≤ 0.2
CCC1OC(=O)CC(O)C(C)C(OC2OC(C)CC(N(C)C)C2O)C(CC=O)CC(C)C(=O)C=CC2(C)OC2C1CN(C)C (centres unmarked) [Example 61, 23,4'-dideoxy-23-dimethylamino-12,13-epoxymycaminosyl tylonolide] | 0.78 (≈ 1.25 µM) | ≤ 0.2 | 0.78 (≈ 1.25 µM) | 0.78 (≈ 1.25 µM) | 1.56 (≈ 2.5 µM) | – | – | – | – | 0.78 (≈ 1.25 µM)
CCC1OC(=O)CC(O)C(C)C(OC2OC(C)CC(N(C)C)C2O)C(CC=O)CC(C)C(=O)C=CC(C)=CC1CN(C)CCO (centres unmarked) [Example 66, 23,4'-dideoxy-23-N-(2-hydroxyethyl)methylaminomycaminosyl tylonolide] | 1.56 (≈ 2.44 µM) | ≤ 0.2 | 0.78 (≈ 1.22 µM) | 1.56 (≈ 2.44 µM) | 1.56 (≈ 2.44 µM) | – | – | – | – | 0.78 (≈ 1.22 µM)
CCC1OC(=O)CC(O)C(C)C(OC2OC(C)CC(N(C)C)C2O)C(CC=O)CC(C)C(=O)C=CC(C)=CC1CN(CC)CCO (centres unmarked) [Example 67, 23,4'-dideoxy-23-N-ethyl(2-hydroxyethyl)aminomycaminosyl tylonolide] | 0.78 (≈ 1.19 µM) | 0.39 (≈ 0.597 µM) | 0.78 (≈ 1.19 µM) | 0.78 (≈ 1.19 µM) | 0.78 (≈ 1.19 µM) | – | – | – | – | 0.78 (≈ 1.19 µM)
CCC1OC(=O)CC(O)C(C)C(OC2OC(C)C(O)C(N(C)C)C2O)C(CC=O)CC(C)C(=O)C=CC(C)=CC1CN1CCCCC1C (centres unmarked) [Example 87, 23-deoxy-23-(2-methylpiperidino)mycaminosyl tylonolide] | 0.78 (≈ 1.15 µM) | – | 0.78 (≈ 1.15 µM) | 0.78 (≈ 1.15 µM) | 0.78 (≈ 1.15 µM) | – | – | – | – | 0.78 (≈ 1.15 µM)
CCC1OC(=O)CC(O)C(C)C(OC2OC(C)C(O)C(N(C)C)C2O)C(CC=O)CC(C)C(=O)C=CC(C)=CC1CN1CCCC(C)C1 (centres unmarked) [Example 88, 23-deoxy-23-(3-methylpiperidino)mycaminosyl tylonolide] | 0.78 (≈ 1.15 µM) | – | 0.78 (≈ 1.15 µM) | 0.78 (≈ 1.15 µM) | 0.78 (≈ 1.15 µM) | – | – | – | – | 0.39 (≈ 0.574 µM)
CCC1OC(=O)CC(O)C(C)C(OC2OC(C)C(O)C(N(C)C)C2O)C(CC=O)CC(C)C(=O)C=CC(C)=CC1CN1CCC(C)CC1 (centres unmarked) [Example 89, 23-deoxy-23-(4-methylpiperidino)mycaminosyl tylonolide] | 0.78 (≈ 1.15 µM) | – | 0.78 (≈ 1.15 µM) | 0.78 (≈ 1.15 µM) | 0.78 (≈ 1.15 µM) | – | – | – | – | 0.78 (≈ 1.15 µM)
CCC1OC(=O)CC(O)C(C)C(OC2OC(C)C(O)C(N(C)C)C2O)C(CC=O)CC(C)C(=O)C=CC(C)=CC1CN1CCCCCCC1 (centres unmarked) [Example 90, 23-deoxy-23-heptamethyleneiminomycaminosyl tylonolide] | 0.39 (≈ 0.563 µM) | – | – | – | – | – | 0.39 (≈ 0.563 µM) | 0.39 (≈ 0.563 µM) | 0.39 (≈ 0.563 µM) | 0.39 (≈ 0.563 µM)
